Assay results taken from ChEMBL document CHEMBL4043233, “A structural investigation of FISLE-412, a peptidomimetic compound derived from saquinavir that targets lupus autoantibodies” (Bioorg Med Chem Lett, 2017).
Activity calls are given as the source filed them. No cut-off for these calls is given here.

Key:
[1] = (§1) Inhibition of D-DWEYS binding to mouse anti-dsDNA monoclonal antibody R4A pretreated for 1 hr followed by D-DWEYS peptide addition measured after 1 hr by ELISA
Mus musculus [2] = organism: Mus musculus; assay: as §1
Mus musculus [3] = organism: Mus musculus; assay: Inhibition of mouse glomerular binding to mouse anti-dsDNA monoclonal antibody R4A at 50 uM pretreated for 1 hr followed by glomerular addition by microscopic analysis

SMILES	IC50 ([1]; read-out: IC50) [µM]	IC50 [1]	other results
CC(C)(C)NC[C@@H]1CC2CCCCC2CN1C[C@@H](O)[C@H](Cc1ccccc1)NC[C@H](CCN)NC(=O)C1CCCCN1 (stereo partly drawn)	10	–	–
CC(C)(C)NC[C@@H]1CC2CCCCC2CN1C[C@@H](O)[C@@H](N)Cc1ccccc1 (stereo partly drawn)	–	–	inhibition (Mus musculus [2]; concentration not given here): < 20%
CC(C)(C)NC[C@@H]1CC2CCCCC2CN1C[C@@H](O)[C@H](Cc1ccccc1)NC[C@H](CCN)NC(=O)c1ccccn1 (stereo partly drawn)	12.5	–	–
OCC1Nc2ccccc2CC1O (stereo not drawn)	–	Not Active	–
NCC[C@@H](CN[C@H](CO)Cc1ccccc1)NCC1CCc2ccccc2N1 (stereo partly drawn)	–	Not Active	–
CC(C)(C)NC[C@@H]1CC2CCCCC2CN1C[C@@H](O)[C@H](Cc1ccccc1)NC[C@H](CCN)NCC1CCc2ccccc2N1 (stereo partly drawn)	6.9	–	–
CC(C)(C)NC(=O)[C@@H]1CC2CCCCC2CN1C[C@@H](O)[C@H](Cc1ccccc1)NC(=O)c1ccc2ccccc2c1 (stereo partly drawn)	> 100	–	–
CC(C)(C)NC[C@@H]1CC2CCCCC2CN1C[C@@H](O)[C@H](Cc1ccccc1)NC[C@H](CCN)NC(=O)c1ccc2ccccc2c1 (stereo partly drawn)	3.7	–	inhibition (Mus musculus [3]): Active; inhibition (Mus musculus [2]): Dose-dependent effect
CC(C)(C)NC[C@@H]1CC2CCCCC2CN1C[C@@H](O)[C@H](Cc1ccccc1)NC[C@H](CCN)NC(=O)c1ccc2ccccc2n1 (stereo partly drawn)	7.3	–	–
CC(C)(C)NC[C@@H]1CC2CCCCC2CN1 (stereo partly drawn)	–	Not Active	–
NCC[C@@H](CN[C@@H](Cc1ccccc1)[C@H](O)CN1CCOCC1)NC(=O)c1ccc2ccccc2c1	–	Not Active	–
CC(C)(C)NC[C@@H]1CC2CCCCC2CN1C[C@@H](O)[C@H](Cc1ccccc1)NC(=O)[C@H](CCN)NC(=O)c1nc2ccccc2cc1O (stereo partly drawn)	19.7	–	–
CC(C)(C)NC[C@@H]1CC2CCCCC2CN1C[C@@H](O)[C@H](Cc1ccccc1)NC(=O)c1ccc2ccccc2n1 (stereo partly drawn)	5.8	–	inhibition (Mus musculus [3]): Active; inhibition (Mus musculus [2]): Dose-dependent effect
CC(C)(C)NC[C@@H]1CC2CCCCC2CN1C[C@@H](O)[C@H](Cc1ccccc1)NC[C@@H](N)CCN (stereo partly drawn)	27.3	–	–
CC(C)(C)NC[C@@H]1CC2CCCCC2CN1C[C@@H](O)[C@H](Cc1ccccc1)NC(=O)c1ccc2ccccc2c1 (stereo partly drawn)	6.8	–	–
CC(C)(C)NC(=O)[C@@H]1CC2CCCCC2CN1C[C@@H](O)[C@H](Cc1ccccc1)NC(=O)[C@H](CCN)NCc1ccc2ccccc2n1 (stereo partly drawn)	–	Not Active	–
CC(C)(C)NC(=O)[C@@H]1CC2CCCCC2CN1C[C@@H](O)[C@H](Cc1ccccc1)NC(=O)c1ccc2ccccc2n1 (stereo partly drawn)	88.7	–	–
CC(C)(C)NC[C@@H]1CC2CCCCC2CN1C[C@@H](O)[C@H](Cc1ccccc1)NC[C@H](CCN)NCC1Nc2ccccc2CC1O (stereo partly drawn)	4.5	–	–
O=C(O)c1ccc2ccccc2n1 [QUINALDIC ACID]	–	Not Active	–
